# ChEMBL document CHEMBL1201862, “PubChem BioAssay data set” (2004)
# Calls of active or inactive are those of the source.
# Columns and labels:
# [1] = molecular target: T1, DNA repair protein RAD52 homolog (Homo sapiens, UniProt P43351); type: functional, biochemical
# T1 sequence (P43351 whole entry): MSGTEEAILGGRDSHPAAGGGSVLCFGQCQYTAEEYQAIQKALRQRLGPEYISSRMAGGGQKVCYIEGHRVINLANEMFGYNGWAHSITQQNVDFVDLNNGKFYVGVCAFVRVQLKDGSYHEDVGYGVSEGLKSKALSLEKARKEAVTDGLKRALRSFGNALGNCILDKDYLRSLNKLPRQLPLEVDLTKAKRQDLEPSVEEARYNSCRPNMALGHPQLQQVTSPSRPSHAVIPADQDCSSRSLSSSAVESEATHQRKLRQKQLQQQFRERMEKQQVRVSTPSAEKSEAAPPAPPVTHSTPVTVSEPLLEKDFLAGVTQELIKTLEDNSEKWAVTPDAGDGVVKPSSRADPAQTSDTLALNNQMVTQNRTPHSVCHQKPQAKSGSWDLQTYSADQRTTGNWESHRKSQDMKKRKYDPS
# [2] = molecular target: T2, Carboxy-terminal domain RNA polymerase II polypeptide A small phosphatase 1 (Homo sapiens, UniProt Q9GZU7); test: inhibitors of CTDSP1, concentration-response testing, biochemical assay, absorbance-based, actives from ultra-high-throughput screening (AID 540297); type: functional
# T2 sequence (Q9GZU7 whole entry): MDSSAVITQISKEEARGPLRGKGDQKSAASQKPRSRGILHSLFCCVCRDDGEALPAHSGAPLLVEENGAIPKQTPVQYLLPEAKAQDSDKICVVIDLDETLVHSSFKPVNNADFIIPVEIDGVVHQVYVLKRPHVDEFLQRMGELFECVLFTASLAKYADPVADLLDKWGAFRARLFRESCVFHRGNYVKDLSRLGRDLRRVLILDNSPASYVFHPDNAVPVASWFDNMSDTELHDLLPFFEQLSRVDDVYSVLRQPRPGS
# [3] = molecular target: Glyceraldehyde-3-phosphate dehydrogenase (Homo sapiens, UniProt P04406)
# [4] = molecular target: T3, Calpain-2 catalytic subunit (Sus scrofa, UniProt P43367); test: pig calpain II inhibitor potency, dose response, biochemical, fluorogenic peptide substrate (AID 1420); type: functional
# T3 sequence (P43367 whole entry): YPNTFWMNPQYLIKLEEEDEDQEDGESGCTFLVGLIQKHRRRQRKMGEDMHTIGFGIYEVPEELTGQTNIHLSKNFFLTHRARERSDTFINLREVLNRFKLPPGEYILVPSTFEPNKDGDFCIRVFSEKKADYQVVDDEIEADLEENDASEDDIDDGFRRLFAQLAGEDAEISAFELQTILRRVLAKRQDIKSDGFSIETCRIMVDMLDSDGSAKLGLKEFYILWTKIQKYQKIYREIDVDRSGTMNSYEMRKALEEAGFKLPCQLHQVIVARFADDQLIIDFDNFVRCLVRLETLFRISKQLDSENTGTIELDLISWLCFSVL
# [5] = molecular target: T4, Heat shock factor protein 1 (Mus musculus, UniProt P38532); test: inhibition of MG132-induced HSE-luciferase signal, confirmation, cell-based, NIH3T3, luminescence, dose retest (AID 2382); type: functional;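 note: NIH3T3 fibroblasts with HSF1-driven luciferase reporter stressed by proteasome inhibitor MG132; luminescence from HSF1-driven luciferase expression after 8 hours of MG132 stress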
# T4 sequence (P38532 whole entry): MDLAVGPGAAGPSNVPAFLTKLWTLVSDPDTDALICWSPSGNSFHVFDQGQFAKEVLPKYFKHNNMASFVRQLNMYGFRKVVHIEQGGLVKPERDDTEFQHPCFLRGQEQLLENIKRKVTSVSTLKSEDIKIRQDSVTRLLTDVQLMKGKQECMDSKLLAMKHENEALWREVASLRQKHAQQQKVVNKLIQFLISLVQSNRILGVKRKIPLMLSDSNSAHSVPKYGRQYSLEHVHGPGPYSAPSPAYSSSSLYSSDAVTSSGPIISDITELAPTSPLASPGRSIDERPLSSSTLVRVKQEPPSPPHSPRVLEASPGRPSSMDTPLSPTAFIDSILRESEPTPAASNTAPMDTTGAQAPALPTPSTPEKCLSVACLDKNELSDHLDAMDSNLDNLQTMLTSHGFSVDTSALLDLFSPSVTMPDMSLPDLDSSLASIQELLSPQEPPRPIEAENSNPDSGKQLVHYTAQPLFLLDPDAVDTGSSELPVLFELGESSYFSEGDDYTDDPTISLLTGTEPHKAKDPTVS
# Estrogen receptor beta = Estrogen receptor beta (Homo sapiens, UniProt Q92731);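 note: recombinant ER-beta bound to coactivator SRC1 peptide in presence of estradiol agonist; inhibitors block coactivator peptide binding and lower the FRET signal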
# [6] = molecular target: T5, DNA repair and recombination protein RAD54-like (Homo sapiens, UniProt Q92698); test: inhibitors of human RAD54 branch migration, confirmation, biochemical, fluorescence, cherry-picked samples, dose series (AID 651657); type: functional
# T5 sequence (Q92698 whole entry): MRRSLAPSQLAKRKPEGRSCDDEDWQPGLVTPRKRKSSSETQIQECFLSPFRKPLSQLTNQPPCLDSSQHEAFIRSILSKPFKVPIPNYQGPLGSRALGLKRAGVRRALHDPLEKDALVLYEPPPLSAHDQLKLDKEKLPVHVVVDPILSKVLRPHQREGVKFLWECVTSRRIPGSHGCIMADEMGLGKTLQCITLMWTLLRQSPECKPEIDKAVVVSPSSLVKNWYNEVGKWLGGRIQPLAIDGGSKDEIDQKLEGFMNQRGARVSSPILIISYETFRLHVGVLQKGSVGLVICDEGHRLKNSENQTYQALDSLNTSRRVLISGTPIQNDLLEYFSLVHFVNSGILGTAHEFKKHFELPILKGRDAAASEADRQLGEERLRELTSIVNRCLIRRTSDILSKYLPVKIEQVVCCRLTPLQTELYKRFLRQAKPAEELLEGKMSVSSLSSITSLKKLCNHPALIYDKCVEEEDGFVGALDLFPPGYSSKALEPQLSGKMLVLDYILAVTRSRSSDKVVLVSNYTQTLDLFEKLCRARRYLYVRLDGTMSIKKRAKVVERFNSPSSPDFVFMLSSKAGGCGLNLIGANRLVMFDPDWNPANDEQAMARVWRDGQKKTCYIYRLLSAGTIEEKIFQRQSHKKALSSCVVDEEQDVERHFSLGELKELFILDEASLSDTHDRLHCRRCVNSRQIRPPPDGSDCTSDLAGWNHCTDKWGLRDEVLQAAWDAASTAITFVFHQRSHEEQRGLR
# [7] = cytotoxicity toward DRD oncogenic fibroblasts, dose response, cell-based, non-viral oncogenic, luminescence (AID 1934); type: functional; conditions: Homo sapiens
# [8] = growth suppression of PTEN-null colon cells, dose response, cell-based, HCT116 PTEN knockout (AID 1047); type: functional;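 note: HCT116 colon tumor cells with PTEN knocked out; cells exposed to compound for 60 hours before readout; potency for loss of cell viability measured by luminescence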
# BJ [9] = test: cytotoxicity toward BJ-TERT-LT-ST fibroblasts, dose response, cell-based, RAS-independent, luminescence (AID 1935); type: functional; conditions: Homo sapiens;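 note: BJ fibroblasts immortalized with TERT plus LT and ST oncogenes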
# BJ [10] = test: cells; type: functional, cell-based; conditions: Homo sapiens
# [11] = growth suppression of beta-catenin-knockout colon cells, dose response, cell-based, HCT116, human colon tumor (AID 1045); type: functional;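 note: HCT116 colon tumor cells with beta catenin knocked out; cells exposed to compound for 60 hours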
# BJ [12] = test: cytotoxicity toward BJ-TERT fibroblasts, dose response, cell-based, RAS-independent, luminescence (AID 1933); type: functional; conditions: Homo sapiens
# [13] = molecular target: T6, Short transient receptor potential channel 4 (Mus musculus, UniProt Q9QUQ5); test: mouse TRPC4 channel activators, dose response, cell-based, HEK293 TRPC4/mu-opioid, Fluo-4 calcium (AID 434937); type: functional
# T6 sequence (Q9QUQ5 whole entry): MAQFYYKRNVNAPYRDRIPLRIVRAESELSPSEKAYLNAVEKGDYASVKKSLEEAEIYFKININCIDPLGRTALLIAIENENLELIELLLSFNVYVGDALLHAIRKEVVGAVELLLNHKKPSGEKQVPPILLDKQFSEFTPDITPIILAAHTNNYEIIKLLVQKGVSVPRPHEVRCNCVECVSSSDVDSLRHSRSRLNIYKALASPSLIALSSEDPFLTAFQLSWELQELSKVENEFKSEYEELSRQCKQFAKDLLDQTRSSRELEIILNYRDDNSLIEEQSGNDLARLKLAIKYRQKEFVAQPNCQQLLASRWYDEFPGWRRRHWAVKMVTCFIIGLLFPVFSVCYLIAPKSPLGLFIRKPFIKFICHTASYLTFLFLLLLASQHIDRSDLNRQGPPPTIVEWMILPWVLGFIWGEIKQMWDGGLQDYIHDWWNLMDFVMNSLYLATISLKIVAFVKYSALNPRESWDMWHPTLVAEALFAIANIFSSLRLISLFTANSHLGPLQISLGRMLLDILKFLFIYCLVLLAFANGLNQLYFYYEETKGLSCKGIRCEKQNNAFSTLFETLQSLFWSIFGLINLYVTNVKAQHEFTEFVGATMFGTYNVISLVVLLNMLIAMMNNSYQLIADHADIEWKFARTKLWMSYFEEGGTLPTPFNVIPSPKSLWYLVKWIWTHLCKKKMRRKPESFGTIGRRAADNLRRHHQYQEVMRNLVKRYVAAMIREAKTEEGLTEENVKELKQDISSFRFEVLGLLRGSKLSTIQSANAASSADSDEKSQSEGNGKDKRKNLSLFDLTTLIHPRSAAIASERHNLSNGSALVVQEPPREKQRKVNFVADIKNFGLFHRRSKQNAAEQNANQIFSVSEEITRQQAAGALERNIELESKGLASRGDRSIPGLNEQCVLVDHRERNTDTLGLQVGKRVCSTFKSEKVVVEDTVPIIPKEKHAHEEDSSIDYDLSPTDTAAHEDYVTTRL
# [14] = molecular target: T7, Ubiquitin-conjugating enzyme E2 N (Homo sapiens, UniProt P61088); type: functional;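 note: Dose-response confirmation in a TR-FRET assay detecting UBC13-driven polyubiquitin chain formation, inhibition measured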
# T7 sequence (P61088 whole entry): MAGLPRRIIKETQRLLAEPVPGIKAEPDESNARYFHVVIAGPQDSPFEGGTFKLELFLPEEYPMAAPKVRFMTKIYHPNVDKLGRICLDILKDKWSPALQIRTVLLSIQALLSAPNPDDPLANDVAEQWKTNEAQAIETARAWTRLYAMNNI
# [15] = intracellular Trypanosoma cruzi inhibitors in host cells – cell-based, plate reader, cherry-pick samples, set 3, dose response (AID 651818); type: functional;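 note: compounds incubated with infected cells for about four days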
# Glyceraldehyde-3-phosphate dehydrogenase, sequence (P04406 whole entry): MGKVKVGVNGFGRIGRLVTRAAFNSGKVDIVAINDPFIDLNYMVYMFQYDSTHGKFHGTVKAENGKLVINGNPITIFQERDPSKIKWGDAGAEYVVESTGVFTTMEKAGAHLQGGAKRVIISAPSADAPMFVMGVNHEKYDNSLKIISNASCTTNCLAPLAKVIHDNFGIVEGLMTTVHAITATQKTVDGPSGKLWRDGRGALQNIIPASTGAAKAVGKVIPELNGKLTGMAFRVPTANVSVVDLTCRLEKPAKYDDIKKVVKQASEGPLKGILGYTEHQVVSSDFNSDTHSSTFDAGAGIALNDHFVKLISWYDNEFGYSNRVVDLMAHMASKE
# Estrogen receptor beta, sequence (Q92731 whole entry): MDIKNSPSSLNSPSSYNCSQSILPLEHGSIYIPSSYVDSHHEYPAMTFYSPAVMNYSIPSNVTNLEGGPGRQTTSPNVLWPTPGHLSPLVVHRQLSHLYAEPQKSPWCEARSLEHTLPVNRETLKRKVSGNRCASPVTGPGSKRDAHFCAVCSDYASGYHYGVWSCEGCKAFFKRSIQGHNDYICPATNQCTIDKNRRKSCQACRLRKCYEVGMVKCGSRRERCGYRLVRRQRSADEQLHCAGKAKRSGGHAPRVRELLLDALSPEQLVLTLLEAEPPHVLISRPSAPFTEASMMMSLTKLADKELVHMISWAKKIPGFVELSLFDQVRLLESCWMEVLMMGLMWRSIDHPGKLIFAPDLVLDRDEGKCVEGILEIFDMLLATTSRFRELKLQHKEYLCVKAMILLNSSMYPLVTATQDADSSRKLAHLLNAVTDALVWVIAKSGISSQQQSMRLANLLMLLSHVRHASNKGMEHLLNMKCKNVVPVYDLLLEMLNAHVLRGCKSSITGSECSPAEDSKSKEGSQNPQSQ
smiles,measurement,setting,value
CN(C)CCCN=C(S)N(CCN(C)C)Cc1cc2cc3c(cc2nc1O)OCCO3,AC50,[1],5.91 µM (active)
COC(=O)Cn1c(=O)c2c(n(Cc3ccccc3)c1=O)=N/C(=C/c1ccc(Br)cc1)C=2O,IC50,[2],5.15 µM (active)
O=C(CCC1CCCC1)Nc1nnc[nH]1,IC50,[3],> 10 µM (inconclusive)
CC(C)Cc1ccc(C(C)C(=O)OCC(=O)c2c[nH]c3ccccc23)cc1 (configuration not stated),IC50,[4],6.65 µM (not active)
Cn1c2c(c(=O)n(C)c1=O)C(CC(=O)Nc1ccccc1)C(=O)N2 (configuration not stated),IC50,[4],2.62 µM (not active)
same,EC50,[5],> 195 µM (not active)
Cn1c(N)c(C(=O)COC(=O)CC2CC3CCC2C3)c(=O)n(C)c1=O (configuration not stated),IC50,[4],2.16 µM (active)
COc1ccc(C(C)=O)c2c(O)cccc12,IC50,[4],0.917 µM (not active)
Cc1n[nH]c(C)c1S(=O)(=O)N(CC(=O)N1CCc2ccccc21)c1ccc(C(C)C)cc1,IC50,Estrogen receptor beta,> 50 µM (not active)
CCN(CC)CCCNC(=O)c1cc2c(-c3ccc(Cl)cc3)nn(C)c2s1,AC50,[6],35.9 µM (active)
same,EC50,[7],10.4 µM (active)
same,EC50,[8],5.12 µM (active)
same,EC50,BJ [9],12.1 µM (inconclusive)
same,EC50,BJ [10],21.8 µM (active)
same,EC50,[11],4.29 µM (active)
same,EC50,BJ [12],9.1 µM (active)
same,EC50,[13],0.335 µM (active)
Cc1ccc(C)c(NC(=O)CSc2sc3c(O)cc(=O)[nH]c3c2C#N)c1,IC50,[2],6.09 µM (active)
Cc1ccc(C)c(SCC(=O)NC(=O)Nc2ccc3c(c2)OCCO3)c1,IC50,[4],< 0.4 µM (not active)
CCC[C@@H](CN1CCC[C@H]1CN1C(N)=NC[C@H]1CC(C)C)N1C[C@@H]([C@H](C)CC)N(CCc2ccc(Cl)c(Cl)c2)C1=N,AC50,[1],12.4 µM (active)
same,IC50,[14],> 20 µM (inactive)
CC(=O)Nc1cc(-c2cccc(C(=O)NCCN(C)C)c2)cn2c(-c3ccc(S(C)(=O)=O)cc3)cnc12,AC50,[1],2.7 µM (active)
same,AC50,[6],25.8 µM (active)
C[C@@H]1CCCCO[C@H](CN(C)Cc2ccc(Cl)c(Cl)c2)[C@@H](C)CN([C@H](C)CO)C(=O)c2cc(NS(=O)(=O)c3ccc(F)cc3)ccc2O1,AC50,[15],4.79 µM (active)
Cc1nc2nc(C)c(C)nc2nc1C,AC50,[6],34.7 µM (active)
COc1ccc(S(=O)(=O)N(C)C[C@@H]2Oc3c(NS(=O)(=O)c4ccccc4)cccc3C(=O)N([C@@H](C)CO)C[C@@H]2C)cc1,AC50,[15],12.9 µM (active)
C[C@@H]1CN([C@H](C)CO)C(=O)Cc2cc(NC(=O)Nc3cccc4ccccc34)ccc2O[C@@H]1CN(C)Cc1ccc(Oc2ccccc2)cc1,AC50,[15],2.15 µM (active)
C[C@H]1CN([C@@H](C)CO)C(=O)c2cccc(NC(=O)c3nc4ccccc4s3)c2O[C@H]1CN(C)Cc1ccc(C(=O)Nc2ccccc2N)cc1,AC50,[15],2.97 µM (active)
C[C@@H]1CCCCO[C@@H](CN(C)Cc2ccc(Cl)c(Cl)c2)[C@@H](C)CN([C@H](C)CO)C(=O)c2cc(NC(=O)Nc3ccc4c(c3)OCO4)ccc2O1,AC50,[15],3.68 µM (active)
O=C(COc1cccc([N+](=O)[O-])c1)N/N=C/c1ccco1,IC50,[2],13.9 µM (active)
COc1ccc(-c2nc(C(=O)NCCCN3CCOCC3)cc3c2[nH]c2ccccc23)cc1OC,AC50,[1],4.84 µM (active)
same,AC50,[6],13.7 µM (active)
